System: 72 kDa gelatinase
Assay: Gelatin zymography of bovine nasal cartilage conditioned media: expression of 72 kDa gelatinase
Type: cell-based
Conditions: various concentrations, FIG. 1
Procedure: To evaluate the effects of the compounds of the present invention on the expression of 72 kDa and 92 kDa gelatinases, samples obtained from the bovine nasal cartilage study (described above) were subjected to gelatin zymography.
Separating gels (8%) were made by combining 400 μL gelatin (25 mg/mL) with: 2.5 mL Tris (1.5 M); 100 μL SDS (10%); 2.6 mL acrylamide (30%); 10 μL TEMED; 4.6 mL dH2 O; 100 μL ammonium persulfate (10%). Stacking gels (4.5%) were formed by combining: 2.5 mL Tris (0.5 M); 100 μL SDS (10%); 1.5 mL acrylamide (30%); 10 μL TEMED; 5.8 mL dH2 O; 100 μL ammonium persulfate (10%).
Bovine nasal cartilage conditioned media was diluted (1:15) using sample buffer 1X (2% SDS, 15% glycerol, 0.01% bromophenol blue, 0.25M Trizma Base, pH 6.8). Thirty microliters of each of the diluted samples and molecular weight standards were subjected to electrophoresis at 4° C. under constant current conditions (20 mA of current/gel) using Tris/Glycine running buffer (0.5 M Trizma Base, pH 8.8 using glycine, 1% SDS) that was diluted 1:20 before use.
After completion of the electrophoretic procedure, the gel was first washed twice for 15 minutes in 2.5% Triton X-100. The gel was then rinsed with the gel incubation buffer (0.05 M Tris, pH 8.2, 0.005 M CaCl2, 0.5 μM ZnCl2) and incubated overnight in this buffer at 37° C. […]

Compound: S=c1[nH]nc(-c2ccccc2Nc2ccccc2)o1 [Compound 1, 5-(2-Phenylamino-phenyl)-3H-[1,3,4]oxadiazole-2-thione]
- effect on expression of 72 kDa gelatinase: no effect on expression of 72 kDa gelatinase
